Experimental data: patent US7781439B2, “Pyrazolopyrimidines” (Bayer CropScience AG, priority 2005, dated 2010)
Like-named read-outs stand apart in the source and are kept apart here. Marks after values point to notes of the source that are not given here.

Assay: log P determination
Format: physicochemical
[1] = values marked *, no footnote carries the single asterisk, general footnote: HPLC gradient method, acetonitrile/0.1% aqueous phosphoric acid
[2] = values marked *, HPLC, gradient method, acetonitrile/0.1% aqueous phosphoric acid, EEC Directive 79/831 Annex V. A8
[3] = HPLC, gradient method, acetonitrile/0.1% aqueous phosphoric acid (EEC Directive 79/831 Annex V. A8)
[4] = starting materials and intermediates, log P / log P*, read-out: log P
[5] = values marked **, EEC Directive 79/831 Annex V.A8, HPLC gradient method, acetonitrile/0.1% aqueous formic acid
[6] = EEC Directive 79/831 Annex V. A8 by HPLC (gradient method, acetonitrile/0.1% aqueous phosphoric acid)

CC(C)[C@@H](C)Nc1c(-c2ccc(F)cc2Cl)c(Cl)nc2c(C(=O)NS(C)(=O)=O)cnn12 [Example 183]
log p (values printed without asterisk, EEC Directive 79/831 Annex V. A8, HPLC gradient method, acetonitrile/0.1% aqueous phosphoric acid (general footnote)): 4.18

CC(C)[C@@H](C)Nc1c(-c2ccccc2Cl)c(Cl)nc2c(C(=O)NS(C)(=O)=O)cnn12 [Example 189]
log p [1]: 4.01*

CC(C)[C@@H](C)Nc1c(-c2c(F)cc(F)cc2Cl)c(Cl)nc2c(C(=O)NS(C)(=O)=O)cnn12 [Example 201]
log p [1]: 4.05*

CC(C)[C@@H](C)Nc1c(-c2ccc(Cl)cc2Cl)c(Cl)nc2c(C(=O)NS(C)(=O)=O)cnn12 [Example 207]
log p [1]: 4.55*

CC(C)[C@@H](C)Nc1c(-c2c(F)cc(Cl)cc2F)c(Cl)nc2c(C(=O)NS(C)(=O)=O)cnn12 [Example 213]
log p [1]: 4.24*

CC1CCN(c2c(-c3c(F)cccc3Cl)c(Cl)nc3c(C(=O)NS(C)(=O)=O)cnn23)CC1 [Example 255]
log p [1]: 4.2*

CC1CCN(c2c(-c3c(F)cc(F)cc3F)c(Cl)nc3c(C(=O)NS(C)(=O)=O)cnn23)CC1 [Example 261]
log p [1]: 4.07*

CC1CCN(c2c(-c3c(F)cc(F)cc3Cl)c(Cl)nc3c(C(=O)NS(C)(=O)=O)cnn23)CC1 [Example 285]
log p [1]: 4.34*

CC(C)Nc1c(-c2ccc(F)cc2Cl)c(Cl)nc2c(C(=O)NS(C)(=O)=O)cnn12 [Example 351]
log p [2]: 3.57*

CC(C)Nc1c(-c2ccccc2Cl)c(Cl)nc2c(C(=O)NS(C)(=O)=O)cnn12 [Example 357]
log p [2]: 3.44*

CC(C)Nc1c(-c2c(F)cc(Cl)cc2F)c(Cl)nc2c(C(=O)NS(C)(=O)=O)cnn12 [Example 381]
log p [2]: 3.68*

CC(C)CNc1c(-c2c(F)cc(F)cc2F)c(Cl)nc2c(C(=O)NS(C)(=O)=O)cnn12 [Example 429]
log p [2]: 3.59*

CC(C)CNc1c(-c2ccc(F)cc2Cl)c(Cl)nc2c(C(=O)NS(C)(=O)=O)cnn12 [Example 435]
log p [2]: 3.82*

CC(C)CNc1c(-c2ccccc2Cl)c(Cl)nc2c(C(=O)NS(C)(=O)=O)cnn12 [Example 441]
log p [2]: 3.78*

CC(C)CNc1c(-c2ccc(Cl)cc2Cl)c(Cl)nc2c(C(=O)NS(C)(=O)=O)cnn12 [Example 459]
log p [2]: 4.26*

CC(C)CNc1c(-c2c(F)cc(Cl)cc2F)c(Cl)nc2c(C(=O)NS(C)(=O)=O)cnn12 [Example 465]
log p [2]: 3.97*

CC(C)(C)CNc1c(-c2c(F)cccc2Cl)c(Cl)nc2c(C(=O)NS(C)(=O)=O)cnn12 [Example 507]
log p [2]: 4.04*

CC(C)(C)CNc1c(-c2c(F)cc(F)cc2F)c(Cl)nc2c(C(=O)NS(C)(=O)=O)cnn12 [Example 513]
log p [2]: 3.9*

CC(C)(C)CNc1c(-c2ccc(F)cc2Cl)c(Cl)nc2c(C(=O)NS(C)(=O)=O)cnn12 [Example 519]
log p [2]: 4.19*

CC(C)(C)CNc1c(-c2ccccc2Cl)c(Cl)nc2c(C(=O)NS(C)(=O)=O)cnn12 [Example 525]
log p [2]: 4.17*

CC(C)(C)CNc1c(-c2ccc(Cl)cc2Cl)c(Cl)nc2c(C(=O)NS(C)(=O)=O)cnn12 [Example 543]
log p [2]: 4.63*

CC(C)(C)CNc1c(-c2c(F)cc(Cl)cc2F)c(Cl)nc2c(C(=O)NS(C)(=O)=O)cnn12 [Example 549]
log p [2]: 4.31*

CNC(=O)NC(=O)c1cnn2c(N[C@H](C)C(C)C)c(-c3ccc(F)cc3C)c(Cl)nc12 [Example 1178]
log p [3]: 4.42

COC(=O)c1cnn2c(Cl)c(-c3ccc(Cl)cc3Cl)c(Cl)nc12 [Methyl 5,7-dichloro-6-(2,4-dichlorophenyl)pyrazolo[1,5-a]pyrimidine-3-carboxylate]
log p [4]: 3.86

COC(=O)c1cnn2c(NC(C)C)c(-c3ccc(Cl)cc3Cl)c(Cl)nc12 [Methyl 5-chloro-6-(2,4-dichlorophenyl)-7-isopropylaminopyrazolo[1,5-a]pyrimidine-3-carboxylate]
log p [4]: 4.07

COC(=O)c1cnn2c(O)c(-c3ccc(Cl)cc3Cl)c(O)nc12 [Methyl 6-(2,4-dichlorophenyl)-5,7-dihydroxypyrazolo[1,5-a]pyrimidine-3-carboxylate]
log p [4]: 1.21

Cc1cc(F)c(-c2c(Cl)nc3c(C(=O)NS(C)(=O)=O)cnn3c2N[C@H](C)C(C)(C)C)c(F)c1 [compound 51]
log p [5]: 4.38**

CC(Nc1c(-c2ccccc2)c(Cl)nc2c(C(=O)Nc3ccon3)cnn12)C(C)(C)C (stereo not shown) [compound 71]
log p [5]: 4.88**

CC(C)[C@@H](C)Nc1c(-c2ccc(Cl)cc2Cl)c(Cl)nc2c(C(=O)NS(=O)(=O)C(F)(F)F)cnn12 [compound 206]
log p [5]: 3.87**

CCS(=O)(=O)NC(=O)c1cnn2c(N[C@H](C)C(C)C)c(-c3ccc(Cl)cc3Cl)c(Cl)nc12 [compound 208]
log p [5]: 4.88**

Cc1cc(F)c(-c2c(Cl)nc3c(C(=O)NS(C)(=O)=O)cnn3c2N[C@H](C)C(C)C)c(F)c1 [compound 219]
log p [5]: 4.08**

CC(C)Nc1c(-c2ccc(Cl)cc2Cl)c(Cl)nc2c(C(=O)NS(C)(=O)=O)cnn12 [compound 375]
chromatographic logP [2]: 3.91

Cc1cc(F)ccc1-c1c(Cl)nc2c(C(=O)Nc3ncccn3)cnn2c1NC(C)C(C)C (stereo not shown) [compound 1179]
log p [3]: 6.61

CC(C)C(C)Nc1c(-c2ccc(F)cc2F)c(Cl)nc2c(C(=O)NN3CCOCC3)cnn12 (stereo not shown) [compound 1180]
log p [3]: 3.46

Cc1ccc(-c2c(Cl)nc3c(C(=O)NN4CCOCC4)cnn3c2NC(C)C(C)(C)C)c(Cl)c1 (stereo not shown) [compound 1181]
log p [3]: 4.41

CC(Nc1c(-c2ccc(F)cc2F)c(Cl)nc2c(C(=O)NN3CCOCC3)cnn12)C(C)(C)C (stereo not shown) [compound 1182]
log p [3]: 3.76

Cc1ccsc1-c1c(Cl)nc2c(C(=O)NN3CCOCC3)cnn2c1NC(C)C(C)C (stereo not shown) [compound 1183]
log p [3]: 3.63

CC(C)C(C)Nc1c(-c2ccc(F)cc2Cl)c(Cl)nc2c(C(=O)Nc3ccn(C)n3)cnn12 (stereo not shown) [compound 1184]
log p [6]: 4.35

CC(Nc1c(-c2ccc(F)cc2Cl)c(Cl)nc2c(C(=O)Nc3ccn(C)n3)cnn12)C(C)(C)C (stereo not shown) [compound 1185]
log p [6]: 4.69

CC(C)C(C)Nc1c(-c2ccc(F)cc2Cl)c(Cl)nc2c(C(=O)Nc3ccnn3C)cnn12 (stereo not shown) [compound 1186]
log p [6]: 4.18

CC(Nc1c(-c2ccc(F)cc2Cl)c(Cl)nc2c(C(=O)Nc3cnn(C)c3)cnn12)C(C)(C)C (stereo not shown) [compound 1187]
log p [6]: 4.26

CC(C)C(C)Nc1c(-c2ccc(F)cc2Cl)c(Cl)nc2c(C(=O)Nc3ncn(C)n3)cnn12 (stereo not shown) [compound 1188]
log p [6]: 3.62

CC(C)C(C)Nc1c(-c2ccc(F)cc2Cl)c(Cl)nc2c(C(=O)Nc3cnn(C)c3)cnn12 (stereo not shown) [compound 1189]
log p [6]: 3.95

CC(C)C(C)Nc1c(-c2ccc(F)cc2F)c(Cl)nc2c(C(=O)NS(C)(=O)=O)cnn12 (stereo not shown) [compound 1190]
log p [6]: 3.87

CC(Nc1c(-c2ccc(F)cc2Cl)c(Cl)nc2c(C(=O)Nc3ncn(C)n3)cnn12)C(C)(C)C (stereo not shown) [compound 1191]
log p [6]: 3.91

CC1CCN(c2c(-c3ccc(F)cc3Cl)c(Cl)nc3c(C(=O)Nc4ncn(C)n4)cnn23)CC1 [compound 1192]
log p [6]: 3.89

CC1CCN(c2c(-c3ccc(F)cc3Cl)c(Cl)nc3c(C(=O)Nc4ccnn4C)cnn23)CC1 [compound 1193]
log p [6]: 4.47

Cc1ccc(-c2c(Cl)nc3c(C(=O)NS(C)(=O)=O)cnn3c2NC(C)C(C)(C)C)c(Cl)c1 (stereo not shown) [compound 1194]
log p [6]: 4.76

CC1CCN(c2c(-c3ccc(F)cc3Cl)c(Cl)nc3c(C(=O)Nc4ccn(C)n4)cnn23)CC1 [compound 1195]
log p [6]: 4.66

CC1CCN(c2c(-c3ccc(F)cc3Cl)c(Cl)nc3c(C(=O)Nc4cnn(C)c4)cnn23)CC1 [compound 1196]
log p [6]: 4.31

CC1CCN(c2c(-c3ccc(F)cc3Cl)c(Cl)nc3c(C(=O)Nc4ncn[nH]4)cnn23)CC1 [compound 1197]
log p [6]: 4.11

COC(=O)c1cn[nH]c1N [methyl 5-amino-1H-pyrazole-4-carboxylate]
log p (HPLC (gradient method), starting materials and intermediates, log P / log P*, read-out: log P): -0.07
